In PubChem BioAssay AID651630 (Sanford-Burnham Center for Chemical Genomics, 2012) one finds IC50 cytotoxicity (DAPI nuclear signal decrease) and IC50 data, which are given here for eleven compounds.

The test system of one experiment is DAPI. Description: triacylglycerol accumulation inhibitor potency, dose response, cell-based, panel, Nile Red and DAPI fluorescence, H9c2 (AID 651630).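 Note: cells exposed to compound overnight before fixation and staining.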 The following applies: H9c2 cells, DAPI nuclear fluorescence (cytotoxicity counter-readout), oleic acid.
Another experiment concerns TAG. Described as above. The following applies: H9c2 cells, Nile Red TAG fluorescence, oleic acid.

Calls of active or inactive are those of the source.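 Rule for the calls: active = lipid-stain IC50 at or below a set limit, with nuclear-stain toxicity IC50 at least five times higher; inactive = the rest.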

For the compound `C=C1c2nc3ccccc3n2C=C(c2ccc(C)cc2)N1c1ccccc1`, the IC50 cytotoxicity (DAPI nuclear signal decrease) with DAPI (mean of runs) was > 25 µM (inactive); with DAPI (run 1) it was greater than 25 µM; in the experiment with DAPI (run 2) it was greater than 25 µM. Moreover, the values for the IC50 in the experiment with TAG (mean of runs), in the experiment on TAG (run 1) and with TAG (run 2) were 16.5 µM (inactive), 10.9 µM and 22.2 µM, respectively.
For the compound `CC(=O)OCC(=O)[C@@]12OC3(CCCC3)O[C@@H]1C[C@H]1[C@@H]3CCC4=CC(=O)C=C[C@]4(C)[C@@]3(F)[C@@H](O)C[C@@]12C`, the IC50 cytotoxicity (DAPI nuclear signal decrease) in the experiment on DAPI (run 1) and in the experiment with DAPI (run 2) was greater than 25 µM in each case. The figures for the 50% inhibitory concentration (IC50) in the experiment with TAG (mean of runs), with TAG (run 1) and in the experiment on TAG (run 2) were 2.83 µM, 2.71 µM and 2.95 µM, respectively.
Consider `COC(=O)[C@]1(Cc2ccccc2)N[C@H](c2ccc(-c3cccc(Cl)c3)c(OC)c2)[C@@H]2C(=O)N(C)C(=O)[C@@H]21`, for which the IC50 cytotoxicity (DAPI nuclear signal decrease) in the experiment with DAPI (mean of runs) is > 25 µM (inactive); with DAPI (run 1), greater than 25 µM; in the experiment with DAPI (run 2), greater than 25 µM. Also, the IC50 in the experiment on TAG (mean of runs) is > 25 µM (inactive); in the experiment with TAG (run 1) it was greater than 25 µM; with TAG (run 2) it was greater than 25 µM.
Consider `COC(=O)C1=C(c2ccc(OCc3ccccc3)cc2)C[C@@H]2CC[C@H]1N2C(=O)NCc1ccc(C(C)(C)C)cc1`, for which the IC50 cytotoxicity (DAPI nuclear signal decrease) in the experiment on DAPI (mean of runs) was > 25 µM (inactive); in the experiment on DAPI (run 1) it was greater than 25 µM; in the experiment on DAPI (run 2) it was greater than 25 µM. The values for the IC50 in the experiment with TAG (mean of runs), with TAG (run 1) and with TAG (run 2) were 16.7 µM (inactive), 14.2 µM and 19.1 µM, respectively.
In the case of `CC(C)C[C@H](CO)N(Cc1ccccc1)S(=O)(=O)N(Cc1ccccc1)[C@@H](CO)CC(C)C`, the figures for the IC50 cytotoxicity (DAPI nuclear signal decrease) with DAPI (mean of runs), in the experiment with DAPI (run 1) and in the experiment on DAPI (run 2) were > 25 µM (inactive), greater than 25 µM and greater than 25 µM, respectively. The IC50 in the experiment on TAG (run 1) is 9.64 µM; with TAG (run 2), greater than 25 µM.
As for `COc1cc(NC(=O)c2ccco2)c(OC)cc1NC(=O)CCC(=O)Nc1cccc(C)c1C`, the IC50 cytotoxicity (DAPI nuclear signal decrease) with DAPI (mean of runs) is > 25 µM (inactive); with DAPI (run 1), greater than 25 µM; in the experiment on DAPI (run 2) it was greater than 25 µM. Besides, the results for the IC50 in the experiment on TAG (run 1) and in the experiment on TAG (run 2) were greater than 25 µM and 22.3 µM, respectively.
Turning to `COc1ccc(N=C2C(=Nc3ccc(OC)cc3)N(c3ccc(OC)cc3)C(=S)N2C(=O)c2ccc(OC)cc2)cc1`, the IC50 cytotoxicity (DAPI nuclear signal decrease) with DAPI (run 1) and with DAPI (run 2) was greater than 25 µM each time. Moreover, the IC50 in the experiment on TAG (mean of runs), in the experiment on TAG (run 1) and in the experiment on TAG (run 2) was less than 0.78 µM each time.
`Cc1onc(NC(=O)c2ccc([N+](=O)[O-])o2)c1Br`: the IC50 cytotoxicity (DAPI nuclear signal decrease) was > 25 µM (inactive) with DAPI (mean of runs), greater than 25 µM with DAPI (run 1) and greater than 25 µM with DAPI (run 2). In addition, the IC50 in the experiment with TAG (mean of runs) was > 25 µM (inactive); in the experiment with TAG (run 1), greater than 25 µM; in the experiment with TAG (run 2), greater than 25 µM.
Regarding `CC1(C(=O)Nc2ccc3c(c2)OCO3)Cc2c(-c3cccc(C(N)=O)c3)ccnc2O1` (stereo not given), the IC50 cytotoxicity (DAPI nuclear signal decrease) in the experiment with DAPI (mean of runs) was > 25 µM (inactive); in the experiment on DAPI (run 1), greater than 25 µM; in the experiment on DAPI (run 2), greater than 25 µM. Also, the concentration for half-maximal inhibition (IC50) was greater than 25 µM in the experiment on TAG (run 1) and 19.1 µM in the experiment on TAG (run 2).
Consider `O=C(Nc1nc2ccc(C(=O)N3CCCCC3)cc2s1)C1CCCCC1`, for which the IC50 cytotoxicity (DAPI nuclear signal decrease) in the experiment with DAPI (mean of runs) is > 25 µM (inactive); in the experiment on DAPI (run 1), greater than 25 µM; in the experiment on DAPI (run 2), greater than 25 µM. Further, the results for the IC50 in the experiment on TAG (mean of runs), in the experiment on TAG (run 1) and in the experiment with TAG (run 2) were 15.4 µM (inactive), 10.6 µM and 20.2 µM, respectively.
For `C[C@@]12C(=O)Nc3ccc(Br)cc3C(=O)N1[C@H]1c3cc(Br)ccc3OC[C@@H]1[C@@H]2c1ccccc1`, the IC50 cytotoxicity (DAPI nuclear signal decrease) in the experiment on DAPI (run 1) and in the experiment on DAPI (run 2) was greater than 25 µM throughout. Also, the figures for the 50% inhibitory concentration (IC50) with TAG (mean of runs), in the experiment on TAG (run 1) and in the experiment on TAG (run 2) were 4.98 µM, 4.48 µM and 5.47 µM, respectively.

What is called IC50 is the midpoint of a concentration-inhibition curve.
